Measured values published in patent publication US5436229A, “Bisulfite adducts of arginine aldehydes” (Eli Lilly and Company, priority 1994, dated 1995).

Tests used:
Assay type in all cases: biochemical
Bovine trypsin = target: T1, Bovine trypsin (Bos taurus, UniProt P00760); assay: Serine protease inhibition (Kass), trypsin
T1 construct: Bovine trypsin is purchased from Worthington Biochemicals; purchased Worthington Biochemicals, Freehold, N.J
T1 sequence (P00760 24-246): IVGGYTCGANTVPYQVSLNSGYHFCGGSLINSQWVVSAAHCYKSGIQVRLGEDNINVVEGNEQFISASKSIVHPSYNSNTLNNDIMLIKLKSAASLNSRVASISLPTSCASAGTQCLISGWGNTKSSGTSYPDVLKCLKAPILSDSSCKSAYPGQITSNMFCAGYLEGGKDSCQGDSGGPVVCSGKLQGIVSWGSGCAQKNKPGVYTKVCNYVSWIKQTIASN
Protocol: (§1) By substantially following the procedures described above for human thrombin, and using other human blood coagulation system serine proteases and using fibrinolytic system serine proteases, with the appropriate chromogenic substrates, identified below, the selectivity of the compounds of the present invention with respect to the coagulation factor serine proteases and to the fibronolytic serine proteases are evaluated as well as their substantial lack of interference with human plasma clot fibrinolysis.
(§2) Human factors X, Xa, IXa, XIa, and XIIa are purchased from Enzyme Research Laboratories, South Bend, Ind.; human urokinase from Leo Pharmaceuticals, Denmark; and recombinant activated Protein C (aPC) is prepared at Eli Lilly and Co. substantially according to U.S. Pat. No. 4,981,952 incorporated by reference herein in its entirety. Chromogenic substrates: N-Benzoyl-Ile-Glu-Gly-Arg-p-nitroanilide (for factor Xa); N-Cbz-D-Arg-Gly-Arg-p-nitroanilide (for factor IXa assay as the factor Xa substrate); Pyroglutamyl-Pro-Arg-p-nitroanilide (for Factor XIa and for aPC); H-D-Pro-Phe-Arg-p-nitroanilide (for factor XIIa); and Pyroglutamyl-Gly-Arg-p-nitroanilide (for urokinase); are purchased from KabiVitrum, Stockholm, Sweden, or from Midwest Biotech, Fishers, Ind. Bovine trypsin is purchased from Worthington Biochemicals, Freehold, N.J., and human plasma kallikrein from Kabi Vitrum, Stockholm, Sweden. Chromogenic substrate H-D-Pro-Phe-Arg-p-nitroanilide for plasma kallikrein is purchased from Kabi Vitrum, Stockholm, Sweden. N-Benzoyl-Phe-Val-Arg-p-nitroanilide, the substrate for human thrombin and for trypsin, is synthesized according to procedures described above for the compounds of the present invention, using known methods of peptide coupling from commercially available reactants, or purchaed from Midwest Biotech, Fishers, Ind.

human thrombin = human thrombin (Homo sapiens, UniProt P00734); assay: Thrombin amidase inhibition (Kass), chromogenic substrate
Protocol: The assay is carried out by mixing 50 μl buffer (0.03M Tris, 0.15M NaCl, pH 7.4) with 25 μl of human thrombin solution (purified human thrombin, Enzyme Research Laboratories, South Bend, Ind., at 8 NIH units/ml) and 25 μl of test compound in a solvent (50% aqueous methanol (v:v)). Then 150 μl of an aqueous solution of the chromogenic substate (at 0.25 mg/ml) are added and the rates of hydrolysis of the substrate are measured by monitoring the reactions at 405 nm for the release of p-nitroaniline. Standard curves are constructed by plotting free thrombin concentration against hydrolysis rate. […] The amount of free inhibitor in each assay is calculated by subtracting the number of moles of bound thrombin from the number of moles of added inhibitor (test compound).
The Kass value is the hypothetical equilibrium constant for the reaction between thrombin and the test compound (I) . [formula]
Kass is calculated for a range of concentrations of test compounds and the mean value reported in units of liter per mole.

human plasma [1] = assay: Human plasma anticoagulation, prothrombin time (PT)
Protocol: (§3) Fibrinogen is prepared from in-date ACD human blood as the fraction I-2 according to previous procedures and specifications. Smith, Biochem. […] Coagulation reagents ACTIN, Thromboplastin, and Human plasma are from Baxter Healthcare Corp., Dade Division, Miami, Fla. Bovine thrombin from Parke-Davis (Detroit, Mich.) is used for coagulation assays in plasma. Coagulation assay procedures are as previously described. […] A CoAScreener coagulation instrument (American LABor, Inc.) is used for all coagulation assay measurements. […] The compounds of formula I are added to human or animal plasma over a wide range of concentrations to determine prolongation effects on the APTT, PT, and TT assays. Linear extrapolations are performed to estimate the concentrations required to double the clotting time for each assay.

Human plasmin = target: T2, Human plasmin (Homo sapiens, UniProt P00747); assay: Serine protease inhibition (Kass), plasmin
T2 construct: Human plasmin is purchased from Boehringer Mannheim; purchased Boehringer Mannheim, Indianapolis, Ind
T2 sequence (P00747 581-810 limits assumed): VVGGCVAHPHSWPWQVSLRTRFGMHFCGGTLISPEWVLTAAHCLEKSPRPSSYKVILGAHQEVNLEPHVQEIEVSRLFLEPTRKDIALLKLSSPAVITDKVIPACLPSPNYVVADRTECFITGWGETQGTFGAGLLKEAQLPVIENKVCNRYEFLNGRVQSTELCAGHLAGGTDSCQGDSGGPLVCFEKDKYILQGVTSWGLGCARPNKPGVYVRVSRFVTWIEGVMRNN
T2 sequence (P00747 97-580 partner limits assumed): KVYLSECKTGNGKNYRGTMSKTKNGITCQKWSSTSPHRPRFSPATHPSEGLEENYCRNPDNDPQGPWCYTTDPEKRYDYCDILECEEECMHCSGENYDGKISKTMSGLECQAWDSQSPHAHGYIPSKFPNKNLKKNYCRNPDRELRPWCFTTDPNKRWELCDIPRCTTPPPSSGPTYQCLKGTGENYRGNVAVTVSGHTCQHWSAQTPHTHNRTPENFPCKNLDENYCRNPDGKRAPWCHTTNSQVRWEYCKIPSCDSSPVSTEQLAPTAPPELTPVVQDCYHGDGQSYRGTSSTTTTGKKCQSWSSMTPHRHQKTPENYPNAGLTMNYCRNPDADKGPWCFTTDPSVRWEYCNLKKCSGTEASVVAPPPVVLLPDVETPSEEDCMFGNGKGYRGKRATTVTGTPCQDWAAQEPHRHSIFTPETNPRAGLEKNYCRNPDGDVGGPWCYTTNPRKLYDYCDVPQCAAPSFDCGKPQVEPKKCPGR
Protocol: as §1
(§4) Human plasmin is purchased from Boehringer Mannheim, Indianapolis, Ind.; nt-PA is purchased as single chain activity reference from American Diagnostica, Greenwich, Conn.; modified-t-PA6 (mt-PA6) is prepared at Eli Lilly and Company by procedure known in the art (See, Burck, et al., J. Biol. Chem., 265, […] (1990). Plasmin chromogenic substrate H-D-Val-Leu-Lys-p-nitroanilide and tissue plasminogen activator (t-PA) substrate H-D-Ile-Pro-Arg-p-nitroanilide are purchased from Kabi Vitrum, Stockholm, Sweden.

factor Xa = target: T3, factor Xa (Homo sapiens, UniProt P00742); assay: Serine protease inhibition (Kass), factor Xa
T3 construct: Human factors X, Xa, IXa, XIa, and XIIa are purchased from Enzyme Research Laboratories; purchased Enzyme Research Laboratories, South Bend, Ind
T3 sequence (P00742 235-488 limits assumed): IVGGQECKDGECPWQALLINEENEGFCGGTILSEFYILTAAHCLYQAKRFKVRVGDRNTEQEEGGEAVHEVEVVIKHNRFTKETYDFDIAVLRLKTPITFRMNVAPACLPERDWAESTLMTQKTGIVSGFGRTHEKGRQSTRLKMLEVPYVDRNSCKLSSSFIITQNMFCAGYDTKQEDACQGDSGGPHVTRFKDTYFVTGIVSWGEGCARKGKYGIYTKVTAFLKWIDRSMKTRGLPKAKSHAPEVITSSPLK
T3 sequence (P00742 41-179 partner limits assumed): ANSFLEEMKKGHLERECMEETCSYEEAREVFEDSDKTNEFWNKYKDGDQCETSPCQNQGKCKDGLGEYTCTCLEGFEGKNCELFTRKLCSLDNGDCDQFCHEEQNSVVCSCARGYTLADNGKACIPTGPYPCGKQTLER
Protocol: as §1, §2

[2] = target: T4, tissue plasminogen activator (t-PA) (Homo sapiens, UniProt P00750); assay: Serine protease inhibition (Kass), t-PA
T4 construct: purchased American Diagnostica, Greenwich, Conn
T4 sequence (P00750 36-562): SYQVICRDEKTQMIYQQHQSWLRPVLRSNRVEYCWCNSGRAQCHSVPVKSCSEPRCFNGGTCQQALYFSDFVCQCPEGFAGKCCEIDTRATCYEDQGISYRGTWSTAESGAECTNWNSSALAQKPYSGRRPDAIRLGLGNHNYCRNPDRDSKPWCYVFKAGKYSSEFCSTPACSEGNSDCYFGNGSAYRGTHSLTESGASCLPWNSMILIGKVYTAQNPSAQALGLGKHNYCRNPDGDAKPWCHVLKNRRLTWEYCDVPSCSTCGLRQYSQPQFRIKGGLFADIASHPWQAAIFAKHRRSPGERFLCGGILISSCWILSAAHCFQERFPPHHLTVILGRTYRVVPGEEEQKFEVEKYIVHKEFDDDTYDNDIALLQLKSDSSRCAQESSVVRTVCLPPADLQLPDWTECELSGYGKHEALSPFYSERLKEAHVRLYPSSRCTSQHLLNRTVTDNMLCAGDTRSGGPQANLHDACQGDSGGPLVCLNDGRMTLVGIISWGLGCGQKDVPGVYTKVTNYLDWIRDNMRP
Protocol: as §1, §4

human plasma [3] = assay: Human plasma anticoagulation, activated partial thromboplastin time (APTT)
Protocol: as §3

human plasma [4] = assay: Human plasma anticoagulation, thrombin time (TT)
Protocol: as §3

| Compound | Kass Trypsin (Bovine trypsin) [L/mol × 10^6] | Kass Human Thrombin (human thrombin) [L/mol × 10^6] | 2 × Clotting time PT (human plasma [1]) | Kass Plasmin (Human plasmin) [L/mol × 10^6] | Kass Xa (factor Xa) [L/mol × 10^6] | Kass t-PA [2] [L/mol × 10^6] | 2 × Clotting time APTT (human plasma [3]) | 2 × Clotting time TT (human plasma [4]) [ng/mL] |
| --- | --- | --- | --- | --- | --- | --- | --- | --- |
| CCC[C@](Cc1ccccc1)(NC(=O)OCC)C(=O)N1CCC[C@H]1C(=O)N[C@H](C=O)CCCNC(=N)N.Cl [Example 37] | 4.9 | 47 | 2,800 ng/mL | 0.12 | 0.030 | < 0.001 | 4,100 ng/mL | 71 |
| CCCC(Cc1ccccc1)(NC(=O)OCC)C(=O)N1CCC[C@H]1C(=O)N[C@H](C=O)CCCNC(=N)N.Cl (stereo partly drawn) [Example 38, N-ethoxycarbonylphenylalanyl(αn-propyl)-L-prolinyl-L-arginine aldehyde hydrochloride] | 7.3 | 38 | 2,200 ng/mL | 0.074 | 0.077 | < 0.001 | 2,700 ng/mL | 98 |
| CCCC[C@](Cc1ccccc1)(NC(=O)OCC)C(=O)N1CCC[C@H]1C(=O)N[C@H](C=O)CCCNC(=N)N.Cl [Example 39, N-ethoxycarbonyl-D-phenylalanyl(αn-butyl)-L-prolinyl-L-arginine aldehyde hydrochloride] | 21 | 66 | 3,000 ng/mL | 0.066 | 0.095 | < 0.001 | 3,400 ng/mL | 160 |
| CCCCC(Cc1ccccc1)(NC(=O)OCC)C(=O)N1CCC[C@H]1C(=O)N[C@H](C=O)CCCNC(=N)N (stereo partly drawn) [Example 40, N-ethoxycarbonylphenylalanyl(αn-butyl)-L-prolinyl-L-arginine aldehyde] | 15 | 47 | 2,400 ng/mL | 0.13 | 0.088 | 0.001 | 3,100 ng/mL | 91 |
| CCS(=O)(=O)NC(C)(C(=O)N1CCC[C@H]1C(=O)N[C@H](C=O)CCCNC(=N)N)c1ccccc1.Cl (stereo partly drawn) [Example 41, N-ethylsulfonyl-(D,L)-phenylglycinyl(αmethyl)-L-prolinyl-L-arginine aldehyde hydrochloride] | 42 | 430 | 2,100 ng/mL | 1.2 | 0.49 | 0.023 | 1,200 ng/mL | 52 |
| C[C@@]1(C(=O)N[C@H](C=O)CCCNC(=N)N)CCCN1C(=O)[C@@H](Cc1ccccc1)NS(C)(=O)=O.Cl [Example 43, N-methylsulfonyl-D-phenylalanyl(αmethyl)-L-prolinyl-L-arginine aldehyde hydrochloride] | 28 | 31 | 1,600 ng/mL | 0.56 | 0.23 | 0.027 | 1,500 ng/mL | 41 |
| C[C@@]1(C(=O)N[C@H](C=O)CCCNC(=N)N)CCCN1C(=O)[C@H](Cc1ccccc1)NS(C)(=O)=O.Cl [Example 44, N-methylsulfonylphenylalanyl(αmethyl)-L-prolinyl-L-arginine aldehyde hydrochloride] | 1.4 | 2.1 | 11,000 ng/mL | 0.031 | 0.033 | 0.0023 | 12,000 ng/mL | 560 |
| Cl.N=C(N)NCCC[C@@H](C=O)NC(=O)[C@@H]1CCCN1C(=O)[C@@H](Cc1ccccc1)NC(=O)Cc1cccnc1 [Example 48, N-(3-pyridylacetyl)-D-phenylalanyl-L-Prolinyl-L-Arginine Aldehyde Hydrochloride] | 5.2 | 13 | 3,400 ng/mL | 0.27 | 0.067 | 0.22 | 2,300 ng/mL | 150 |
| Cl.Cn1c(C(=O)N[C@H](CC2CCCCC2)C(=O)N2CCC[C@H]2C(=O)N[C@H](C=O)CCCNC(=N)N)cc2ccccc21 [Example 49, N-(1-methylindolyl-2-carbonyl)-D-cyclohexylalanyl-L-Prolinyl-L-Arginine Aldehyde Hydrochlonde] | 7.9 | 320 | 2,500 ng/mL | 25 | 4.6 | 1.1 | 1,000 ng/mL | 110 |
